Measured values reported in ChEMBL document CHEMBL5120757, “Strategies Targeting Protein Tyrosine Phosphatase SHP2 for Cancer Therapy” (J Med Chem, 2022).

What was measured:
[1] = biological target: T1, Tyrosine-protein phosphatase non-receptor type 11 (Homo sapiens, UniProt Q06124); assay: Inhibition of SHP2 (unknown origin)
T1 sequence (Q06124 whole entry): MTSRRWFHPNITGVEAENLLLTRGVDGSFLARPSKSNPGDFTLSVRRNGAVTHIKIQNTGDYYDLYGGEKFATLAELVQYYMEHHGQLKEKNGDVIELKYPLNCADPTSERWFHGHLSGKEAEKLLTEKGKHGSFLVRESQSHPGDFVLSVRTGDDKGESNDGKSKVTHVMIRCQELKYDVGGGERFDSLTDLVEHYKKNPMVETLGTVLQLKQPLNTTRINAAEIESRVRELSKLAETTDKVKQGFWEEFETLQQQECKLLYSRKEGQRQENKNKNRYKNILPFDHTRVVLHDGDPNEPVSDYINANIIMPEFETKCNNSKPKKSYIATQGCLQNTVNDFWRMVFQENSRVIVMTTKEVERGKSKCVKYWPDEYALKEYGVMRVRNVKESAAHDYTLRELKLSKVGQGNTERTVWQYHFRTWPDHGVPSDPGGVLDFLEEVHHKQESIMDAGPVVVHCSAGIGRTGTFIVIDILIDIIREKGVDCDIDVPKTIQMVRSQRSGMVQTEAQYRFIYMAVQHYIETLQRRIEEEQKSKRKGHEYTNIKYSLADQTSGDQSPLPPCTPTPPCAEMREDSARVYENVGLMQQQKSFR

[2] = biological target: T1, Tyrosine-protein phosphatase non-receptor type 11; assay: Degradation of wildtype SHP2 in human MV411 cells; assay type: cell-based; settings: mv4-11
[3] = biological target: Tyrosine-protein phosphatase non-receptor type 11 (Homo sapiens, UniProt Q06124, F285S); assay: Inhibition of SHP2 F285S mutant (unknown origin) using DiFMUP as substrate incubated for 1 hr followed by substrate addition measured after 30 mins by plate reader method
Chain of Tyrosine-protein phosphatase non-receptor type 11 (Homo sapiens, UniProt Q06124, F285S) (Q06124 2-593 F285S limits assumed): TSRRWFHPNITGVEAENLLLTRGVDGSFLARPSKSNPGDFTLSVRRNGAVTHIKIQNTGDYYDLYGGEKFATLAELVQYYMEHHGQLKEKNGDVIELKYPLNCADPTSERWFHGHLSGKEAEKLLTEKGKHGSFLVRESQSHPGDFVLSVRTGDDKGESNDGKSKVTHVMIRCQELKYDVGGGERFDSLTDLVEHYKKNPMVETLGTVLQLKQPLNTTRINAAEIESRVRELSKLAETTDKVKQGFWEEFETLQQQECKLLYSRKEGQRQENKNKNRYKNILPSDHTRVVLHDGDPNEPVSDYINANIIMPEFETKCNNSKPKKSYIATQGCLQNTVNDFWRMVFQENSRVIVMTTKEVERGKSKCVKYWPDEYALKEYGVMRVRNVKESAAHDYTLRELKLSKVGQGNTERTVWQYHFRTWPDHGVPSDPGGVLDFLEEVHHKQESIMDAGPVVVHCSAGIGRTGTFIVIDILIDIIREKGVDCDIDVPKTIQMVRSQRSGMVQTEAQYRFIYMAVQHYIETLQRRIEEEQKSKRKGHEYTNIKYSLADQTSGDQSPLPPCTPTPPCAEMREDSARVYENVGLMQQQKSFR

[4] = biological target: T1, Tyrosine-protein phosphatase non-receptor type 11; assay: Inhibition of wildtype SHP2 (unknown origin)

IC50 [1] | Compound | also measured
50 nM | COC(=O)c1cc(NC2=NC(=O)/C(=C/c3ccc(C)cc3)S2)ccc1O | 
 | C[C@@H]1OCC2(CCN(c3cnc(Sc4cccc(NC(=O)CCC(=O)NCCCOCCOCCOCCCNc5cccc6c5C(=O)N(C5CCC(=O)NC5=O)C6=O)c4Cl)c(N)n3)CC2)[C@@H]1N (some centres not stated) | DC50 [2]: 6 nM
 | Cc1nc(N2CCC3(CC2)CO[C@@H](C)[C@H]3N)cnc1-c1ccc(OCCOCCOCCCOCCCOCCCOCCCOCCOCCNCC(=O)COc2cccc3c2C(=O)N(C2CCC(=O)NC2=O)C3=O)c(Cl)c1Cl (some centres not stated) | IC50 [3]: 22.5 nM
 | CC1(NCc2cn(CCOCCOCCOCCOCCNc3cccc4c3C(=O)N(C3CCC(=O)NC3=O)C4=O)nn2)CCN(c2cnc(-c3cccc(Cl)c3Cl)c(N)n2)CC1 (configuration not stated) | IC50 [4]: 714 nM
16800 nM | NC(=O)c1cc[n+](CC2=C(C(=O)O)N3C(=O)[C@@H](NC(=O)[C@@H](c4ccccc4)S(=O)(=O)O)[C@@H]3SC2)cc1 | 
2100 nM | O=C(O)c1cc(O)c(=O)c2c(O)c(O)ccc2c1 [7-DESHYDROXYPYROGALLIN-4-CARBOXYLIC ACID] | 

Compound | IC50 [1] | also measured
C=C/C(=C/C(=O)C[C@H](C)C[C@@H](C)CC[C@H](O)[C@H](C)C(=O)C[C@@H](O)[C@H](C)[C@@H](C)OC(=O)C[C@@H](O)/C(C(=O)O)=C(\C)C(=O)O)CC | 29000 nM | 
